Results on 73 compounds are retold here after PubChem BioAssay AID449762 (Southern Research Specialized Biocontainment Screening …, 2010).

For this assay, the system named is M. tuberculosis H37Rv growth inhibition, 7H9 media. The assay is described as follows: M. tuberculosis growth inhibition, HTS (AID 449762).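 As to all read-outs here: bacterial growth assessed after seven days of incubation.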 The conditions noted are these: for IC90: measured here: IC90 growth inhibition.

Results filed as inconclusive are left out.

For the compound `C=CCc1c(C)nc(SC)nc1Nc1ccc(C(C)=O)cc1`, the IC50 is 23.3 µM and the IC90 was determined as 32.6 µM.

As to `CCCCCC1CC(CC(=O)NC(=S)Nc2ccc([N+](=O)[O-])cc2)C(=O)O1` (configuration not stated), the half-maximal inhibitory concentration (IC50) was 92.9 µM and the IC90 is above 100 µM.

As to `CCOC(=O)c1c(NC(=O)CCl)sc(CN(C)C)c1-c1ccccc1`, the 50% inhibitory concentration (IC50) was 0.92 µM and the 90% effect concentration (IC90) was 4.68 µM.

In the case of `CCOc1cc(C=O)cc(N=Nc2cccc([N+](=O)[O-])c2)c1O`, the IC50 was 3.98 µM and the IC90 turned out to be 11.6 µM.

For the compound `CCOC(=O)c1c(NC(=O)C(NCCN(C)C)c2ccccc2)sc2c1CCCC2` (configuration not stated), the IC50 was 4.75 µM and the 90% effect concentration (IC90) came out at 10.1 µM.

For the compound `O=C1c2ccccc2S(=O)(=O)c2cc(C(=O)N3CCN(c4c(Cl)cncc4Cl)CC3)ccc21`, the half-inhibitory concentration (IC50) is 32 µM and the concentration for an effect of 90% (IC90) is 46.5 µM.

`COc1ccc(-c2cc3c(=O)n(CC(=O)NCCCN4CCC(Cc5ccccc5)CC4)ncn3n2)cc1`: the concentration for half-maximal inhibition (IC50) is 23.7 µM and the concentration for an effect of 90% (IC90) was determined as 26.2 µM.

Consider `Cc1cc(/C=C\c2ccc3cc(N(C)C)ccc3[n+]2C)c(C)n1-c1ccccc1`, for which the half-inhibitory concentration (IC50) was 1.86 µM and the IC90 was 3.19 µM.

On to `O=c1c(C=Nc2ccc(Oc3ccccc3)cc2)c[nH]n1-c1cccc(Cl)n1`, for which the concentration for half-maximal inhibition (IC50) is 10.6 µM and the IC90 is above 100 µM.

For `O=C(C1CC1)N1CCCC(c2ccc(Cl)cc2)=N1`, the IC50 was 33.1 µM and the 90% effect concentration (IC90) stood at 50.2 µM.

For the compound `COc1ccccc1N1CCN(/N=C/C(Cl)=C/c2ccccc2)CC1`, the concentration for half-maximal inhibition (IC50) is 52.7 µM and the IC90 is above 100 µM.

Turning to `Cn1ccc(=Nc2ccc(NC(=O)c3ccc(N=c4ccn(C)c5ccc([N+](=O)[O-])cc45)cc3)cc2)cc1`, the IC50 was below 0.2 µM and the 90% effect concentration (IC90) was below 0.2 µM.

On to `N#CC(C(=O)Nc1ccccc1)=C1Nc2ccccc2N1`, for which the 50% inhibitory concentration (IC50) is 34.9 µM and the 90% effect concentration (IC90) is above 100 µM.

For the compound `CCCc1ncc(CN2CCCC(C(=O)Nc3ccc(-c4cccc(OC)c4)cc3)C2)cn1` (configuration not stated), the concentration for an effect of 90% (IC90) is above 100 µM.

Consider `Cc1ccnc(NC(=O)c2cc3ccccc3o2)c1`, for which the IC50 was 43.9 µM and the IC90 is above 100 µM.

Turning to `COc1ccc(C(=O)/C=C/c2cc(OC)c(O)c(OC)c2)c(F)c1`, the half-maximal inhibitory concentration (IC50) is 34.6 µM and the IC90 was 67 µM.

For the compound `CC/C(C)=N/NC(=S)NCc1ccco1`, the concentration for half-maximal inhibition (IC50) is 47.5 µM and the 90% effect concentration (IC90) amounted to 53.8 µM.

On to `O=C(NCCCN1CCOCC1)c1cc2c([nH]c3ccccc32)c(-c2cccc(Br)c2)n1`, for which the IC50 is 10.4 µM and the IC90 was 13.4 µM.

Consider `O=c1c(C=NCCN2CCNCC2)c(O)n(C2CCCCC2)c(=O)n1C1CCCCC1`, for which the 50% inhibitory concentration (IC50) was 21 µM and the IC90 is 28.5 µM.

As for `Cc1nn(-c2ccccc2)c(C)c1/C=N/NC(=O)c1cc(-c2cccc3ccccc23)n[nH]1`, the 50% inhibitory concentration (IC50) is 29 µM and the IC90 is above 100 µM.

As for `CCNc1nc(NCC)nc(N/N=C/c2ccc([N+](=O)[O-])o2)n1`, the IC50 is 0.99 µM and the 90% effect concentration (IC90) turned out to be 1.67 µM.

With `NC(=S)NNc1ccc(Cl)c(Cl)c1`, the half-inhibitory concentration (IC50) was 5.81 µM and the 90% effect concentration (IC90) is 9.42 µM.

Turning to `COC(=O)N/N=C/c1c[n+]([O-])c2ccccc2[n+]1[O-]`, the 50% inhibitory concentration (IC50) is 13.2 µM and the 90% effect concentration (IC90) stood at 31.7 µM.

Consider `CCc1cc(C(=O)Nc2nc(-c3ccccn3)cs2)sc1C`, for which the IC50 is 1.26 µM and the IC90 came to 15.3 µM.

For `COc1ccc(-c2ccc(C#N)c(SCC(=O)OCc3ccccc3)n2)cc1OC`, the IC50 is 20.1 µM and the IC90 stood at 69.5 µM.

With `CCCCCn1c(=O)c2ccccc2n2c(CCl)nnc12`, the 50% inhibitory concentration (IC50) is 0.48 µM and the concentration for an effect of 90% (IC90) came out at 2.21 µM.

Consider `CCOC(=O)C(C)Oc1ccc(NC(=O)C(Cl)(Cl)Cl)cc1` (configuration not stated), for which the IC50 was 2.38 µM and the IC90 worked out at 5.08 µM.

Take `COc1ccc(Nc2nc(N)c([N+](=O)[O-])c(NC3CCCCC3)n2)cc1`: the half-inhibitory concentration (IC50) was 9.76 µM and the IC90 was determined as 18.8 µM.

On to `Cc1[nH]n(-c2ccccc2)c(=S)c1C=NCCCN=Cc1c(C)[nH]n(-c2ccccc2)c1=S`, for which the 90% effect concentration (IC90) was above 100 µM.

Consider `CN(C)N=Nc1nc[nH]c1C(N)=O`, for which the 50% inhibitory concentration (IC50) was 4.86 µM and the 90% effect concentration (IC90) was found to be 6.76 µM.

For the compound `C=CCn1c(O)c(N=Nc2ccccc2O)c2ccccc21`, the concentration for half-maximal inhibition (IC50) is 6.1 µM and the IC90 was determined as 24.3 µM.

Regarding `Cn1c(=O)c2c3c(sc2n2c(SCC(N)=O)nnc12)CC(C(C)(C)C)CC3` (configuration not stated), the IC50 is 19.4 µM and the concentration for an effect of 90% (IC90) turned out to be 32.9 µM.

As for `Cc1ccc(-n2cc(CNCCn3nc(C)cc3C)c(-c3ccc(F)cc3)n2)cc1`, the concentration for half-maximal inhibition (IC50) was 3.48 µM and the IC90 was 9.36 µM.

For `O=C(NC1CCCCC1)C(c1ccc2ncccc2c1)N(Cc1ccco1)C(=O)c1ccc2c(c1)OCCO2` (configuration not stated), the IC50 was 92.7 µM and the IC90 was above 100 µM.

For `Cc1cccc(-c2oc3ccc(-c4ccc5c(c4)OCO5)cc3c2C#Cc2cncn2C)c1`, the half-maximal inhibitory concentration (IC50) is 2.9 µM and the concentration for an effect of 90% (IC90) came out at 3.36 µM.

On to `CC(=O)c1cccc2c(O)c(C3=Nc4ccccc4C3=O)[nH]c12`, for which the concentration for half-maximal inhibition (IC50) is 11.7 µM and the 90% effect concentration (IC90) is 13.2 µM.

Turning to `O=C(/C=C/c1cc(Br)ccc1O)c1ccco1`, the 50% inhibitory concentration (IC50) is 7.96 µM and the IC90 came to 13.4 µM.

Consider `Cn1nnnc1Sc1ncnc2scc(-c3cc4ccccc4o3)c12`, for which the 50% inhibitory concentration (IC50) is 0.78 µM and the IC90 was found to be 7 µM.

In the case of `CC(C)(C)C1CCc2sc(-c3nnc(CCl)o3)cc2C1` (configuration not stated), the IC50 was below 0.2 µM and the IC90 was 5.54 µM.

Turning to `Cc1cc2c(cc1C)/C(=N/NC(=O)c1ccccn1)CCC2`, the 50% inhibitory concentration (IC50) is 7.91 µM and the concentration for an effect of 90% (IC90) amounted to 23.2 µM.

For the compound `CCOC(=O)[C@@H]1[C@H]2COc3cc(OC)ccc3[C@H]2N2C(=O)N(c3ccc(C(F)(F)F)cc3)C(=O)[C@]12C`, the IC50 was 5.77 µM and the IC90 came to 6.48 µM.

As for `COC(=O)c1cc(=O)n(-c2ccc(F)cc2)c(=Nc2ccc(F)cc2)s1`, the 50% inhibitory concentration (IC50) was below 0.2 µM and the IC90 was 1.86 µM.

For `CCN(CC)C(=S)SSC(=S)N(CC)CC`, the IC50 was 0.78 µM and the concentration for an effect of 90% (IC90) came to 1.53 µM.

As for `CCc1ccc(N=Nc2ccc(O)c3[nH]cnc23)cc1`, the concentration for half-maximal inhibition (IC50) was 15.4 µM and the IC90 was above 100 µM.

`CCOc1ccc(-n2c(-c3ccc(Br)cc3)c[n+]3c2CCCCC3)cc1`: the IC50 was 69.7 µM and the IC90 is above 100 µM.

Take `CC1CCN(C(=O)C2CCN(c3nnc(-n4cccc4)s3)CC2)CC1`: the IC50 is 2.96 µM and the IC90 worked out at 3.37 µM.

Take `O=C(OCn1nnc2ccccc2c1=O)C1CCCCC1`: the IC50 was 3.56 µM and the concentration for an effect of 90% (IC90) is 7.16 µM.

In the case of `CCC(C)c1ccc2oc(-c3ccc(NC(=O)c4ncn[nH]4)cc3)nc2c1` (configuration not stated), the IC50 was 1.59 µM and the concentration for an effect of 90% (IC90) stood at 7.52 µM.

For the compound `COc1ccc(OCC(=O)Nc2c(C(=O)N(CCN(C)C)Cc3ccco3)oc3ccccc23)cc1`, the concentration for half-maximal inhibition (IC50) is 24.8 µM and the IC90 turned out to be 27.5 µM.

Turning to `Cc1cc(Nc2ccccc2)c2c([N+](=O)[O-])ccc(C)c2n1`, the IC50 was 94.4 µM and the IC90 is above 100 µM.

In the case of `CCOC(=O)CSc1nnc(SCCN2C(=O)c3ccccc3C2=O)s1`, the IC50 was 4.3 µM and the concentration for an effect of 90% (IC90) was found to be 30 µM.

For the compound `COc1ccc2c(c1)CCc1c(C(=O)Nc3c(C)n(C)n(-c4ccccc4)c3=O)noc1-2`, the IC50 is 14.2 µM and the 90% effect concentration (IC90) is above 100 µM.

In the case of `O=C1CN(CC(=O)N2CCCCC2)c2ccccc2O1`, the IC50 was 23.6 µM and the 90% effect concentration (IC90) was 27.4 µM.

As to `Cc1cc(C)c(C(N)=O)c(SCC(=O)c2ccc(Cl)cc2)n1`, the IC50 was 35.3 µM and the IC90 came to 63.1 µM.

In the case of `CCc1ccc2oc(-c3cc(N=Cc4cccc(OC)c4O)ccc3O)nc2c1`, the IC50 was 35.8 µM and the 90% effect concentration (IC90) was found to be 69.3 µM.

For `c1cc(Nc2cccc3nccnc23)c2nccnc2c1`, the IC50 is 9.75 µM and the IC90 was found to be 23.2 µM.

With `CC(=O)N1C(Nc2ccc(Cl)cc2)CCN1c1ccccc1` (configuration not stated), the IC90 was above 100 µM.

As to `COc1cc(/C=N/n2c(-c3ccc4c(c3)NC(=O)CO4)csc2=Nc2cccc(C)c2)ccc1O`, the IC50 was 34 µM and the IC90 was above 100 µM.

For the compound `CC(OC(=O)c1cc(Cl)ccc1[N+](=O)[O-])C(=O)NC(C)c1ccc(F)cc1` (configuration not stated), the half-inhibitory concentration (IC50) is 22.8 µM and the IC90 came out at 26 µM.

As to `Oc1ccc(/C=N/NC(=S)N2CCOCC2)cc1`, the IC50 was 4.2 µM and the IC90 came to 6.19 µM.

On to `O=c1/c(=C\c2ccc(O)cc2)sc2n1C(c1ccccc1)C(c1ccccc1)=NN=2` (configuration not stated), for which the IC50 is 55.7 µM and the 90% effect concentration (IC90) was 87.2 µM.

On to `c1ccc(CCN2CCN(c3ncnc4c3cnn4-c3ccccc3)CC2)cc1`, for which the IC50 is 21.3 µM and the IC90 is 43 µM.

Turning to `CCCCCCCNC1=CC(=O)CC(c2ccccc2)C1` (configuration not stated), the concentration for half-maximal inhibition (IC50) was 41.6 µM and the IC90 was 53.9 µM.

With `CCn1c(SCC(=O)OC2CCCCC2)nc2ccccc2c1=O`, the IC50 was 21.7 µM and the IC90 turned out to be 37.7 µM.

In the case of `N#CCn1c(CCl)nc2ccccc2c1=O`, the concentration for half-maximal inhibition (IC50) was 5.21 µM and the IC90 was 17.4 µM.

Turning to `Cc1ccnc(NC(=O)COc2ccc3c(c2)CCC3)c1`, the concentration for half-maximal inhibition (IC50) is 40.2 µM and the concentration for an effect of 90% (IC90) was above 100 µM.

Turning to `Cc1ccc(C)c(-c2nn(-c3cc(N4CCN(CCO)CC4)ccc3[N+](=O)[O-])c(=O)c3ccccc23)c1`, the 50% inhibitory concentration (IC50) is 12.7 µM and the 90% effect concentration (IC90) is 28.7 µM.

Compound `CCOC(=O)c1ccc(NC(=O)CSc2ccc(-c3cccnc3)nn2)cc1` returned a concentration for an effect of 90% (IC90) above 100 µM.

For `O=C(CSc1nnc(-c2cccs2)o1)NCC1CN(Cc2ccccc2)CCO1` (configuration not stated), the half-maximal inhibitory concentration (IC50) is 5.22 µM and the IC90 came to 15.2 µM.

In the case of `CCCc1cc(NC(=O)CCl)n(-c2ccccc2)n1`, the IC50 was 0.7 µM and the IC90 is 2.29 µM.

For the compound `Cc1ccc(NC(=S)N(CCCN2CCCC2)Cc2cccn2Cc2ccc(Cl)cc2)cc1C`, the IC50 was 86 µM and the IC90 was above 100 µM.

As for `c1ccc(-c2c3ccccc3nc3[nH]c4ccccc4c23)cc1`, the IC50 is 63.1 µM and the 90% effect concentration (IC90) was above 100 µM.

With `CC1CCN(C(=S)NC(=O)c2cccs2)CC1`, the concentration for half-maximal inhibition (IC50) is 12.8 µM and the IC90 came out at 29 µM.
